Usually logP stands for the decadic logarithm of the partition coefficient of the neutral form, usually between octanol and water.

A short description of this series: method code SF-AS, from DOI: 10.1021/jm00305a054, PMID: 5812219.

Molecules are shown by their SMILES.

In the case of `CCCCCC(=O)NC(=O)C1CCC1`, the logP is 0.89.
The molecule `CCCCC(=O)NC(=O)C1CCC1` had a logP of 0.75.
As for `CCCCCCCC(=O)NC(=O)C1CCC1`, the figure is 0.85; as for `O=CNC(=O)C1CCC1`, -0.7.
`CCCC(=O)NC(=O)C1CCC1` displayed a logP of 0.41.
As for `CCCCCCCCCCCC(=O)NC(=O)C1CCC1`, the lipophilicity (logP) is 1.28.
The result for `CC(C)C(=O)NC(=O)C1CCC1` reads 0.26; that for `CC(=O)NC(=O)C1CCC1`, -0.4.
`CC(C)CC(=O)NC(=O)C1CCC1` returned a logP of 0.48.
Take `CC(C)(C)C(=O)NC(=O)C1CCC1`: the logP came to 0.53. This logP and that of the molecule before are within 0.2 log units of each other.
